# “And” between values parts separate entries of the source, which are not always exact repeats. Equal entries are not always repeated. Structures can show the parent of a compound that is named as a salt. Where two headings read alike, the source gives them in different places.
# Legend:
# OR5P3 = biological target: T1, OR5P3 (Homo sapiens, UniProt Q8WZ94); assay: GloSensor cAMP assay, OR5P3-transfected Hana3A cells; format: cell-based; conditions: activation of OR5P3, Hana3A cells, mean ± s.e.m., at least three experiments
# T1 construct: host or cells: Hana3A cells (HEK293T-derived), co-transfected with pCI-RTP1S and pGlo-22F
# T1 sequence (Q8WZ94 1-311): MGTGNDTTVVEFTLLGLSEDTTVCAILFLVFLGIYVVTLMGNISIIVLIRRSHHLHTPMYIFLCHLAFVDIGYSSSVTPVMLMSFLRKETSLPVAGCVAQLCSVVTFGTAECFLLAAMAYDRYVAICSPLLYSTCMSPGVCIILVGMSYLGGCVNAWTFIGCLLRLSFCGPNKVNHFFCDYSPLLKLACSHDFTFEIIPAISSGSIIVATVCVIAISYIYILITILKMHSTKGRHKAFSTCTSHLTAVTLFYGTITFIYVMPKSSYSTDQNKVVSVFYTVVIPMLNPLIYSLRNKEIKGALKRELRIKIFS
# Excerpt: (§1) To validate predicted interactions between odorant compounds and ORs or the CB1 receptor, we used the GloSensor cAMP assay from Promega and measured the EC50 values of compounds. This luminescent assay is a sensitive method for measuring Gs and Gi- protein coupled receptor activation by real-time detection of intracellular second messenger cAMP [44]. The protocol is described in the GloSensor cAMP assays paragraph in the Supplementary Methods (S_file).
# (§2) All odorants used in these assays were purchased from Sigma-Aldrich (Saint-Quentin Fallavier, France) except celery ketone, which was kindly provided by B. Schilling (Givaudan Schweiz AG, Dübendorf, Switzerland). The stock solutions of odorants (100 mM) were prepared in dimethylsulfoxide (DMSO) and were stored at -20°C. Immediately prior to the assays, the stock solutions of odorants were diluted in the CO2-independent medium (Gibco®, Life Technologies) to the appropriate concentrations. The final concentration of DMSO in wells never exceeded 1% (v/v); this concentration had no effect on GloSensor cAMP assays.
# (§3) To validate predicted odorant compound-OR interactions, we used the GloSensor™ cAMP assay (Promega, Charbonnières-Les-Bains, France) to measure EC50 values of compounds. The functional assay was performed in Hana3A cells, a HEK293T-derived cell line optimized for OR expression. Hana3A cells were grown in Minimal Essential Medium (MEM; Life Technologies, Villebon-sur-Yvette, France) supplemented with 10% fetal bovine serum (PAA Laboratories, Les Mureaux, France), 100 μM Eagle’s non-essential amino acids, 2 mM glutamax (Life Technologies) and 1 μg/ml puromycin (Sigma-Aldrich, Saint-Quentin Fallavier, France). The cells were cultured at 37°C in a humidified atmosphere containing 7.3% CO2. Forty-eight hours before performing the GloSensor™ cAMP assay, cells were plated on poly-D-lysine coated 96-well plates (BD Biosciences, Le Pont de Claix, France) at a density of 3x10^4 cells per well. […] Luminescence was measured with a Victor 3V plate reader (Perkin Elmer, Courtaboeuf, France) after addition of odorant solutions (10 μl). […]
# Hana3A cells = assay: Cytotoxic effects seen in the OR GloSensor assay; format: cell-based; conditions: no saturation of the response could be observed
# Procedure: as §3, with “well. Twenty-four hours later, cells were transiently transfected with the OR expression plasmid (50 ng per well) together with the pCI-RTP1S plasmid and the pGlo™-22F cAMP plasmid (Promega) (10 ng and 100 ng per well, respectively) using Fugene®HD (Promega) according to the manufacturer instructions.” for “well.”
# [1] = biological target: human cannabinoid receptor CB1 (Homo sapiens, UniProt P21554); assay: GloSensor cAMP assay, CB1-transfected HEK293 cells; format: cell-based; conditions: for EC50: increase in cAMP production, forskolin-stimulated control cells, mean ± s.e.m., three experiments
# OR2W1 = biological target: T2, OR2W1 (Homo sapiens, UniProt Q9Y3N9); assay: GloSensor cAMP assay, OR2W1-transfected Hana3A cells; format: cell-based; conditions: activation of OR2W1, Hana3A cells, mean ± s.e.m., at least three experiments
# T2 construct: host or cells: Hana3A cells (HEK293T-derived), co-transfected with pCI-RTP1S and pGlo-22F
# T2 sequence (Q9Y3N9 1-320): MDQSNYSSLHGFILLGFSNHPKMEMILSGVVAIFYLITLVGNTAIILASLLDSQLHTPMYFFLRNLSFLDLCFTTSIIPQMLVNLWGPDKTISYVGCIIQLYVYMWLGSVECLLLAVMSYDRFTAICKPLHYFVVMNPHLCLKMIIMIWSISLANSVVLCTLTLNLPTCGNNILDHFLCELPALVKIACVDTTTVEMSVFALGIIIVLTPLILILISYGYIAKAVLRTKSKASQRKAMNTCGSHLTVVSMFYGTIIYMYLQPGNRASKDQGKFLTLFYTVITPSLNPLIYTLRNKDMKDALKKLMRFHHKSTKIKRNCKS
# Excerpt: as §1, §2, §3
# OR51E1 = biological target: T3, OR51E1 (Homo sapiens, UniProt Q8TCB6); assay: GloSensor cAMP assay, OR51E1-transfected Hana3A cells; format: cell-based
# T3 construct: host or cells: Hana3A cells (HEK293T-derived), co-transfected with pCI-RTP1S and pGlo-22F
# T3 sequence (Q8TCB6 1-318): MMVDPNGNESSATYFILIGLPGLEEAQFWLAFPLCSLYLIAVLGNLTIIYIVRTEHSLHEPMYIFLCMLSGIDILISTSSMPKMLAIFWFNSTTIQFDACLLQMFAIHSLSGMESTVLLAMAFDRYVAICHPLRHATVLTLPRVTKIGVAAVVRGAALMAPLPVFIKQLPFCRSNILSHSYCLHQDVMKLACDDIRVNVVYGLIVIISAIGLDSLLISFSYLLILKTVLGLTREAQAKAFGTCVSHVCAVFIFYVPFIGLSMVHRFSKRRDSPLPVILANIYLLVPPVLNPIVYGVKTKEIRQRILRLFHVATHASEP
# Excerpt: as §1, §2
# as §3, with “well. Twenty-four hours later, cells were transiently transfected with the OR expression plasmid (50 ng per well) together with the pCI-RTP1S plasmid and the pGlo™-22F cAMP plasmid (Promega) (10 ng and 100 ng per well, respectively) using Fugene®HD (Promega) according to the manufacturer instructions. In addition, to check that induced activities are OR-dependent, mock transfections were performed by transfecting the cells with the pCI plasmid in place of the OR expression plasmid.” for “well.”
# [2] = biological target: T4, human PPARγ ligand binding domain (Homo sapiens, UniProt P37231); assay: Competitive PPARγ binding assay (LanthaScreen TR-FRET); conditions: IC50 (inhibition of binding), displacement of fluorescent pan PPAR agonist tracer
# T4 sequence (P37231 238-503 limits assumed): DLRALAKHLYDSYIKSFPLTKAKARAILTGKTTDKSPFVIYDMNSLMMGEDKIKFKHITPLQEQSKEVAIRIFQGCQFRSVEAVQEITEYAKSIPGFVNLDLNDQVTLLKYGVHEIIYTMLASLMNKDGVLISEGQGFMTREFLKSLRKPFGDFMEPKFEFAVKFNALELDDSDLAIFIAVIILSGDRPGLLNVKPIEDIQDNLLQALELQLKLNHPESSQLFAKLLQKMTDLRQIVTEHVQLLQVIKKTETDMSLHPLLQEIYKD
# Procedure: To validate predictions of odorant-PPARγ interactions, IC50 values for respective compounds were determined by competitive binding using time-resolved fluorescence resonance energy transfer (LanthaScreen, Invitrogen) on a Wallac EnVision (PerkinElmer).
# To validate predictions of odorant-PPARγ interactions, IC50 values for respective compounds were determined by competitive binding using time-resolved fluorescence resonance energy transfer (LanthaScreen, Invitrogen) on a Wallac EnVision (PerkinElmer). A terbium labeled anti-GST antibody was used to label purified GST-tagged human PPARγ ligand binding domain. Energy transfer from terbium to the tracer, a fluorescent pan PPAR agonist, enabled read-out of each test compound’s ability to displace the tracer. […] An unrestrained sigmoidal (one-binding site) dose-response curve was fitted to each data set by linear regression allowing for determination of IC50 values.
# [3] = absence or presence of pertussis toxin
# [4] = activation of OR51E1, Hana3A cells, mean ± s.e.m., at least three experiments, read-out: EC50
# Sequence of human cannabinoid receptor CB1 (P21554 whole entry): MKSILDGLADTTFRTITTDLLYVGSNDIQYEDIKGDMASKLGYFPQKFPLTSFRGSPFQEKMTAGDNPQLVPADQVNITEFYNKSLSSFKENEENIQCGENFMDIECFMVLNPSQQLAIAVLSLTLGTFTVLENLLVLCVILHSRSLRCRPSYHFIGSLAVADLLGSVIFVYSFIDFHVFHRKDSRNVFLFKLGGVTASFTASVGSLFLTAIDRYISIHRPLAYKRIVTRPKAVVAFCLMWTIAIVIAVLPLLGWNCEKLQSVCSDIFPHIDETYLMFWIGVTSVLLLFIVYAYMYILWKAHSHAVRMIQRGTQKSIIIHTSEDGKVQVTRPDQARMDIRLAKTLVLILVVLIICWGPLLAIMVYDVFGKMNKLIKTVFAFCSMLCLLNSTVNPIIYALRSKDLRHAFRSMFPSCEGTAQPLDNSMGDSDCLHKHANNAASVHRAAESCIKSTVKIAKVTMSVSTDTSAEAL
structure (smiles),measurement,setting,value
"C=C(C)C1CC=C(C)C(=O)C1 (single isomer, unassigned; (-)) [(-)-carvone, reference compound]",EC50,OR5P3,388 µM
CCCCCCCCO [1-octanol],EC50,OR5P3,115 µM
same,concentrations with cytotoxic effects,Hana3A cells,higher than 10^−3 M
CCCCCCCC(C)=O [2-Nonanone],mode of action at CB1,[1]; [3],inverse agonists
same,EC50,[1],363 ± 80.7 µM
CCCCCC(=O)OCCc1ccccc1 [2-Phenylethyl hexanoate],mode of action at CB1,[1]; [3],inverse agonists
same,EC50,[1],509 ± 8.3 µM
"CC(=O)OCc1ccccc1 [Benzyl acetate, reference compound]",EC50,OR2W1,34.3 ± 1.17 µM
CC(C)=CCC/C(C)=C/C=O [Citral],EC50,OR2W1,129 µM
CC(C)=CCCC(C)CC=O (stereo not drawn) [Citronellal],EC50,OR2W1,208 µM
"CCCCCCC(C)(C)c1cc(O)c2c(c1)OC(C)(C)[C@@H]1CC=C(CO)C[C@@H]21 [HU210, (6aR)-trans-3-(1,1-dimethylheptyl)-6a,7,10,10a,-tetrahydro-1-hydroxy-6,6-dimethyl-6H-dibenzo[b,d]pyran-9-methanol, reference compound]",mode of action at CB1,[1],agonists
CC(C)CC(=O)O [Isovaleric acid],EC50,OR51E1; [4],153 µM
"CCCCCCCCC(=O)O [Nonanoic acid, reference compound]",EC50,OR51E1,197 µM
CCC(=O)O [Propionic acid],fold lower activity,"OR51E1; OR51E1, compared with isovaleric acid and nonanoic acid",5 fold
same,EC50,OR51E1; [4],923 µM
CCCCOC(=O)CC(CC(=O)OCCCC)(OC(C)=O)C(=O)OCCCC [Tributyl acetyl citrate],mode of action at CB1,[1]; [3],inverse agonists
same,EC50,[1],122 ± 25.2 µM
CCCC1CC(=O)C=C(C)C1 (stereo not drawn) [celery ketone],EC50,OR5P3,483 µM
same,concentrations with cytotoxic effects,Hana3A cells,higher than 10^−3 M
O=C1C[C@@H](c2ccc(O)cc2)Oc2cc(O)cc(O)c21 [naringenin],IC50,[2],7.4 µM
O=C(OCCc1ccccc1)c1ccccc1O [phenylethyl salicylate],IC50,[2],9.2 µM and 14.7 µM
